# Test results: PMC11637483, “Dissecting caspase-2-mediated cell death: from intrinsic PIDDosome activation to chemical modulation” (Protein & Cell, 2024)
# Entries after “also recorded” stand apart in the source; their conditions may differ.
# Experiments:
# [1] = molecular target: T1, MBP-CASP2(32-165)-L150P/Y151H (Homo sapiens, UniProt P42575, L150P/Y151H); test: MicroScale Thermophoresis binding to L150P/Y151H mutant pro-domain; details: MST, L150P/Y151H double mutant
# T1 construct: cDNAs encoding BID and caspase-2 pro-domain (residues 32–165) were constructed into modified pET vectors; made in house; host or cells: E. coli BL21 (DE3)
# T1 sequence (P42575 32-165 L150P/Y151H): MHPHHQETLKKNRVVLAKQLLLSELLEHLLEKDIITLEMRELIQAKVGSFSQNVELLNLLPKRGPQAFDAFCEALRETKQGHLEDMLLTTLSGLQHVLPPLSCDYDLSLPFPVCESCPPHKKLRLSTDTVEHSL
# Source text: The contrasting responses of the two caspases to HUHS015 might result from sequence differences in the interdomain linker in the pro-domain. […] However, replacing L150 and Y151 in human caspase-2 with mouse P150 and H151, respectively, abolished HUHS015-induced caspase-2 activation as well as the cell death response (Fig. 4D). […] The importance of L150/Y151 for human caspase-2 activation by HUHS015 indicates these residues or the associated structure are likely involved in binding to the compound agonist.
# MicroScale thermophoresis (MST) experiments were carried out at 25°C in the PBST Buffer (PBS with 0.05%, v/v Tween 20) by using a Monolith 2020 (TNG) (MM-208). […] The temperature-induced changes in fluorescence intensity of each sample in the capillary thermophoresis tubes were recorded by the Monolith instrument. The data were analyzed using the program provided by the manufacturer. The binding constant (KD) was calculated directly from the fitting.
# Relative fluorescence (%) […]
# (A) HUHS015-36 activates caspase-2 independently of PIDDosome. […] A TP-based cell viability is expressed as mean±s.d. from three technical replicates.
# Immunoblotting detecting caspase-2 and BID processing is shown. […] A TP-based cell viability is expressed as mean±s.d. from three technical replicates. […]
# [2] = test system: Jurkat cells; test: Cell death and caspase-2 processing in Jurkat cells (endogenous caspase-2); assay type: cell-based, human; details: 8 h
# Source text: We further examined whether HUHS015-derived compounds could activate endogenous caspase-2 in human cells. […] Complementing the CASP2^−/− Jurkat cells with exogenous caspase-2 restored HUHS015-36-induced apoptosis, in which caspase-2 was expectedly processed (Fig. 5A and 5B). We also profiled caspase-2 expression in a panel of 10 mouse tumor cell lines and observed highly variable expression levels (Fig. 5C). […] In B16-F10 (melanoma), LLC1 (Lewis lung carcinoma), MB49 (bladder carcinoma), KPC (pancreatic ductal adenocarcinoma), and 4T1 (mammary carcinoma) cells, caspase-2 was expressed at much lower levels (Fig. 5C). In contrast, EMT6 (mammary carcinoma), EL4 (T lymphoblast), and Hepa1-6 (hepatoma) feature robust caspase-2 expression, much higher than in Jurkat cells (Fig. 5C).
# Figure 5. HUHS015-36 activates endogenous caspase-2 to induce apoptosis in Jurkat cells but not mouse cells. […] Lysates of 10 mouse cancer cell lines were analyzed by immunoblotting using indicated antibodies. […] ATP cell viability (A and D) is expressed as mean ± s.d. from three technical replicates. […]
# Cell viability was measured by the ATP assay using the CellTiter-Glo® Luminescent Cell Viability Assay kit (Promega).
# To stimulate caspase-2 activation, PIDD1-CC controlled by a Tet-On inducible system was introduced into indicated cells. […] Cell lysates were analyzed by standard immunoblotting.
smiles,measurement,setting,value
Cc1cccc2nc(-n3nc4c(c3O)CCCC4)[nH]c12 [HUHS015-36],KD,[1],Not detected; also recorded: failed to detect confident binding
same,caspase-2 processing and cell death,[2]; CASP2 knockout Jurkat cells,completely diminished
same,caspase-2 processing and cell death,[2]; WT Jurkat cells,induced evident caspase-2 processing and cell death
